Measurements from patent publication US7186743B2, “Substituted pyrazolyl compounds for the treatment of inflammation” (Pharmacia Corporation, priority 2001, dated 2007).
Structures can show the parent of a compound that is named as a salt. Where two headings read alike, the source gives them in different places. One block for each compound: values may come before it.

Target: T1, IKK2 (Homo sapiens, UniProt O14920)
T1 construct: made in house; host or cells: insect cells (baculovirus, pFastBac; SF9)
T1 sequence (O14920 1-756): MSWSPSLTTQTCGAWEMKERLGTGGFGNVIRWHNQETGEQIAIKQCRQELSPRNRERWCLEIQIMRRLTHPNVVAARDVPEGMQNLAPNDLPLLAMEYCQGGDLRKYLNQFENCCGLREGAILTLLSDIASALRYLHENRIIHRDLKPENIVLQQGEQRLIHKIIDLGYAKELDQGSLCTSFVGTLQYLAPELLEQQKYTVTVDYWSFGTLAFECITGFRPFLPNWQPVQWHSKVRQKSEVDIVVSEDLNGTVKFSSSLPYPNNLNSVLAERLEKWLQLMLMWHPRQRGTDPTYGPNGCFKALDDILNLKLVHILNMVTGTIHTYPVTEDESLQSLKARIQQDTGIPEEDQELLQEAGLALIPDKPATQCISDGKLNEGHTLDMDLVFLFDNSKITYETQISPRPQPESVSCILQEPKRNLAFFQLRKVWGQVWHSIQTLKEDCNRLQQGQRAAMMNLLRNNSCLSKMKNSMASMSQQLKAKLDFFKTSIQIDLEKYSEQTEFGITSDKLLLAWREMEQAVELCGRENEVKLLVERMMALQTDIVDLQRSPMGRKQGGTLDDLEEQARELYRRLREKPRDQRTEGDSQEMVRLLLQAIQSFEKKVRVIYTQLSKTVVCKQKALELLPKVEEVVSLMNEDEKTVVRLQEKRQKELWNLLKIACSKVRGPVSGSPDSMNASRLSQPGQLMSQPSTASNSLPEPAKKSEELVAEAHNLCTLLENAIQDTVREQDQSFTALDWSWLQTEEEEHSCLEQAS
Test: IKKβ Resin Enzyme Assay (IKK2 resin)
Format: biochemical
From the text: cDNAs of human IKK1 and IKK2 were amplified by reverse transcriptase-polymerase chain reaction from human placental RNA (Clonetech). hIKK1 was subcloned into pFastBac HTa (Life Technologies) and expressed as N-terminal His6-tagged fusion protein. The hIKK2 cDNA was amplified using a reverse oligonucleotide primer which incorporated the peptide sequence for a FLAG-epitope tag at the C-terminus of the IKK2 coding region ([…]). The hIKK2:FLAG cDNA was subcloned into the baculovirus vector pFastBac. The rhIKK2 ([…]) mutant was constructed in the same vector used for wild type rhIKK2 using a QuikChange™ mutagenesis kit (Stratagene). Viral stocks of each construct were used to infect insect cells grown in 40 L suspension culture. […] Cell lysates were stored at −80° C. until purification of the recombinant proteins was undertaken as described below.
A 10-liter culture of baculovirus-expressing IKK2 tagged with FLAG peptide was centrifuged and the cell pellet (MOI=0.1 and I=72 hrs) was re-suspended in buffer A. These cells were microfluidized, and centrifuged at 100,000×g for 45 min. Supernatant was passed over a G-25 column equilibrated with Buffer A. Protein peak was collected and incubated with anti-FLAG affinity resin on a rotator overnight in buffer B. The resin was washed in batch with 10–15 bed volumes of buffer C. Washed resin was poured into a column and rhIKK2 homodimer was eluted using 5 bed volumes of buffer B containing FLAG peptide. 5 mM DTT, 0.1% NP-40 and BSA (concentrated to 0.1% in final amount) was added to the eluted enzyme before concentrating in using an Amicon membrane with a molecular weight cut-off of 30 kDa. Enzyme was aliquoted and stored at −80° C.
IKKβ kinase activity was measured using a biotinylated IκBα peptide ([…]32-Gly-Leu-Asp-Ser36-Met-Lys-Asp-Glu-Glu) (American Peptide Co.). […] ATP (Amersham) (about 1×10^5 cpm), 1 μM ATP (Sigma), 1 mM DTT (Sigma), 2 mM MgCl2 (Sigma), 2 mM MnCl2 (Sigma), 10 mM NaF (Sigma), 25 mM Hepes (Sigma) buffer, pH 7.6 and 20 μl enzyme solution and 10 ul inhibitor in a final volume of 50 μl. After incubation at 25° C. for 30 min, 150 μl resin (Dowex anion-exchange resin AG1X8 200–400 mesh) in 900 mM formate, pH 3.0 was added to each well to stop the reaction. Resin was allowed to settle for one hour and 50 ul of supernatant was removed to a Micolite-2 flat bottom plate (Dynex). 150 μl of scintillation fluid (Microscint 40) (Packard) was added to each well. Incorporation of [γ-^33P] ATP was measured using a Top-Count NXT (Packard).

[1] = Table 14, read-out: IKK2 Resin IC50
[2] = Table 3, read-out: IKK Resin IC50
[3] = Table 2, read-out: IKK Resin IC50
[4] = Table 11, read-out: IKK2 Resin IC50

SMILES: CN(C)CCSc1ccc(Cl)c(C(=O)Nc2ccc3c(c2)-c2c(c(C(N)=O)nn2-c2ccc(F)cc2)CC3)n1 [Example 257, 8-{[(3-chloro-6-{[2-(dimethylamino)ethyl]thio}pyridin-2-yl)carbonyl]amino}-1-(4-fluorophenyl)-4,5-dihydro-1H-benzo[g]indazole-3-carboxamide]
IC50 (Table 7, read-out: IKK2 Resin IC50): ≤ 1000 nM

SMILES: NC(=O)c1nn(-c2ccc([N+](=O)[O-])cc2)c2c1CCc1ccc(NC(=O)c3ccccc3Cl)cc1-2 [Example 324, 8-[(2-chlorobenzoyl)amino]-1-(4-nitrophenyl)-4,5-dihydro-1H-benzo[g]indazole-3-carboxamide]
IC50 [1]: ≤ 1000 nM

SMILES: COc1ccc(C(=O)Nc2ccc3c(c2)-c2c(c(C(N)=O)nn2-c2ccc(S(C)(=O)=O)cc2)CC3)cc1 [Example 143, 8-[(4-methoxybenzoyl)amino]-1-[4-(methylsulfonyl)phenyl]-4,5-dihydro-1H-benzo[g]indazole-3-carboxamide]
IC50 [2]: ≤ 1000 nM

SMILES: NC(=O)c1nn(-c2ccc(F)cc2F)c2c1CCc1ccc(NC(=O)c3cccnc3Cl)cc1-2 [Example 366, 8-{[(2-chloropyridin-3-yl)carbonyl]amino}-1-(2,4-difluorophenyl)-4,5-dihydro-1H-benzo[g]indazole-3-carboxamide]
IC50 [1]: ≤ 1000 nM

SMILES: NC(=O)c1nn(-c2ccc(F)c(F)c2)c2c1CCc1ccc(NC(=O)c3ccccc3Cl)cc1-2 [Example 363, 8-[(2-chlorobenzoyl)amino]-1-(3,4-difluorophenyl)-4,5-dihydro-1H-benzo[g]indazole-3-carboxamide]
IC50 [1]: ≤ 1000 nM

SMILES: CN(C)c1ccc(Cl)c(C(=O)Nc2ccc3c(c2)-c2c(c(C(N)=O)nn2-c2ccc(S(C)(=O)=O)cc2)CC3)c1 [Example 120, 8-{[2-chloro-5-(dimethylamino)benzoyl]amino}-1-[4-(methylsulfonyl)phenyl]-4,5-dihydro-1H-benzo[g]indazole-3-carboxamide]
IC50 [3]: ≤ 1000 nM

SMILES: CS(=O)(=O)c1ccc(-n2nc(C(N)=O)c3c2-c2cc(NC(=O)c4cccc(Cl)c4N)ccc2CC3)cc1 [Example 118, 8-[(2-amino-3-chlorobenzoyl)amino]-1-[4-(methylsulfonyl)phenyl]-4,5-dihydro-1H-benzo[g]indazole-3-carboxamide]
IC50 [3]: ≤ 1000 nM

SMILES: COc1ccc([N+](=O)[O-])c(C(=O)Nc2ccc3c(c2)-c2c(c(C(N)=O)nn2-c2ccc(S(C)(=O)=O)cc2)CC3)c1 [Example 147, 8-[(5-methoxy-2-nitrobenzoyl)amino]-1-[4-(methylsulfonyl)phenyl]-4,5-dihydro-1H-benzo[g]indazole-3-carboxamide]
IC50 [2]: ≤ 1000 nM

SMILES: NC(=O)c1nn(-c2ccc(/C=C/n3ccnc3)cc2)c2c1CCc1ccc(NC(=O)c3ccccc3Cl)cc1-2 [Example 293, 8-[(2-chlorobenzoyl)amino]-1-{4-[(E)-2-(1H-imidazol-1-yl)ethenyl]phenyl}-4,5-dihydro-1H-benzo[g]indazole-3-carboxamide]
IC50 [4]: ≤ 1000 nM

SMILES: CS(=O)(=O)c1ccc(-n2nc(C(N)=O)c3c2-c2cc(NC(=O)c4ccc(N)cc4Cl)ccc2CC3)cc1 [Example 114, 8-[(4-amino-2-chlorobenzoyl)amino]-1-[4-(methylsulfonyl)phenyl]-4,5-dihydro-1H-benzo[g]indazole-3-carboxamide]
IC50 [3]: ≤ 1000 nM

SMILES: CNC(=O)/C=C/c1ccc(-n2nc(C(N)=O)c3c2-c2cc(NC(=O)c4cccnc4Cl)ccc2CC3)cc1 [Example 301, 8-{[(2-chloropyridin-3-yl)carbonyl]amino}-1-{4-[(1E)-3-(methylamino)-3-oxoprop-1-enyl]phenyl}-4,5-dihydro-1H-benzo[g]indazole-3-carboxamide]
IC50 [4]: ≤ 1000 nM

SMILES: Cc1ccc(C(=O)Nc2ccc3c(c2)-c2c(c(C(N)=O)nn2-c2ccc4c(c2)OCO4)CC3)c(Cl)n1 [Example 167, 1-(1,3-benzodioxol-5-yl)-8-{[(2-chloro-6-methylpyridin-3-yl)carbonyl]amino}-4,5-dihydro-1H-benzo[g]indazole-3-carboxamide]
IC50 (Table 4, read-out: IKK2 Resin IC50): ≤ 1000 nM

IC50 (Table 15, read-out: IKK2 Resin IC50): 1000 to 10000 nM
SMILES: CN(C)CCNC(=O)c1ccc(-n2nc(C(N)=O)c3c2-c2cc(NC(=O)c4ccccc4Cl)ccc2CC3)cc1 [Example 380, 8-[(2-chlorobenzoyl)amino]-1-[4-({[2-(dimethylamino)ethyl]amino}carbonyl)phenyl]-4,5-dihydro-1H-benzo[g]indazole-3-carboxamide hydrochloride]

SMILES: CC(C)(C)NCC(=O)Nc1ccc2c(c1)-c1c(c(C(N)=O)nn1-c1ccc3c(c1)OCO3)CC2 [Example 450, 1-(1,3-benzodioxol-5-yl)-8-{[N-(tert-butyl)glycyl]amino}-4,5-dihydro-1H-benzo[g]indazole-3-carboxamide]
IC50 (Table 23, read-out: IKK2 Resin IC50): ≤ 1000 nM

SMILES: CS(=O)(=O)c1ccc(-n2nc(C(N)=O)c3c2-c2cc(NC(=O)c4ccccc4F)ccc2CC3)cc1 [Example 97, 8-[(2-fluorobenzoyl)amino]-1-[4-(methylsulfonyl)phenyl]-4,5-dihydro-1H-benzo[g]indazole-3-carboxamide]
IC50 [3]: ≤ 1000 nM

SMILES: CS(=O)(=O)c1ccc(-n2nc(C(N)=O)c3c2-c2cc(NC(=O)c4ccc([N+](=O)[O-])cc4[N+](=O)[O-])ccc2CC3)cc1 [Example 155, 8-[(2,4-dinitrobenzoyl)animo]-1-[4-(methylsulfonyl)phenyl]-4,5-dihydro-1H-benzo[g]indazole-3-carboxamide]
IC50 [2]: ≤ 1000 nM

SMILES: CNC(=O)/C=C/c1ccc(-n2nc(C(N)=O)c3c2-c2cc(NC(=O)c4ccccc4Cl)ccc2CC3)cc1 [Example 311, 8-[(2-chlorobenzoyl)amino]-1-{4-[(1E)-3-(methylamino)-3-oxoprop-1-enyl]phenyl}-4,5-dihydro-1H-benzo[g]indazole-3-carboxamide]
IC50 (Table 12, read-out: IKK2 Resin IC50): ≤ 1000 nM

SMILES: CN(C)S(=O)(=O)c1ccc(-n2nc(C(N)=O)c3c2-c2cc(NC(=O)c4ccccc4Cl)ccc2CC3)cc1 [Example 50, 8-[(2-chlorobenzoyl)amino]-1-{4-[(dimethylamino)sulfonyl]phenyl}-4,5-dihydro-1H-benzo[g]indazole-3-carboxamide]
IC50 (Table 1, read-out: IKK2-resin): ≤ 1000 nM

IC50 (read-out: IKK-2 resin IC50): 1000 to 10000 nM
SMILES: NC(=O)c1nn(-c2ccc(N3CCOCC3)cc2)c2c1CCc1ccc(NC(=O)c3cccnc3Cl)cc1-2 [Example 288, 8-{[(2-chloropyridin-3-yl)carbonyl]amino}-1-(4-morpholin-4-ylphenyl)-4,5-dihydro-1H-benzo[g]indazole-3-carboxamide]

SMILES: CSc1ccc(-n2nc(C(N)=O)c3c2-c2cc(NC(=O)c4ccncc4Cl)ccc2CC3)cc1 [Example 412, 8-[(3-chloroisonicotinoyl)amino]-1-[4-(methylthio)phenyl]-4,5-dihydro-1H-benzo[g]indazole-3-carboxamide hydrochloride]
IC50 (Table 19, read-out: IKK2 Resin IC50): ≤ 1000 nM

SMILES: CC(C)(O)/C=C/c1ccc(-n2nc(C(N)=O)c3c2-c2cc(NC(=O)c4ccccc4Cl)ccc2CC3)cc1 [Example 289, 8-[(2-chlorobenzoyl)amino]-1-{4-[(1E)-3-hydroxy-3-methylbut-1-enyl]phenyl}-4,5-dihydro-1H-benzo[g]indazole-3-carboxamide]
IC50 [4]: ≤ 1000 nM
